We go through 29 molecules from patent publication US20190134005A1 (BioMarin Pharmaceutical Inc., priority 2016, published 2019).

For orientation: IC50 means the concentration needed to halve the response being measured.

One experiment addresses T1, human CGT (Homo sapiens, UniProt Q16880).
T1 sequence (Q16880 21-541): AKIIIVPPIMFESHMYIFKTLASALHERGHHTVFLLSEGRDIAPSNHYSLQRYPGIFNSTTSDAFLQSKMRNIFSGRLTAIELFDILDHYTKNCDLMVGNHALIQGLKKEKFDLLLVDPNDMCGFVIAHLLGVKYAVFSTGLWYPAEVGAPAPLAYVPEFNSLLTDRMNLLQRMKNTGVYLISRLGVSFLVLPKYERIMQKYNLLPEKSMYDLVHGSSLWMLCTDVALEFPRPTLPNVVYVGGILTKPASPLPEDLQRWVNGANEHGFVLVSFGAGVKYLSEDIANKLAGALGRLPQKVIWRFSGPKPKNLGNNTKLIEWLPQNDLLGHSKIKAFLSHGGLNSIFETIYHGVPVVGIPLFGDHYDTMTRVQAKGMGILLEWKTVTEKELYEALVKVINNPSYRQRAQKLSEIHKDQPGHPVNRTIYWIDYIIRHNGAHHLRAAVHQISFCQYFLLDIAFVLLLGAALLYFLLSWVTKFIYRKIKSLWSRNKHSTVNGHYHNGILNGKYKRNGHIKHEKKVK
Description: Assay 1: CGT Enzymatic Assay (RapidFire/MS/MS, 0.01% Tween 80). As to conditions: Table 1, Compounds of Formula (I) and Formula (II); CGT enzymatic assay, C6-NBD-dihydro-galactosylceramide readout; read-out: IC50. It counts as biochemical.
Turning to `Cc1ccc(N2C(=O)N(c3ccc(C)cc3)C(O)(c3cccc(C(C)(F)F)c3)C23COC3)cc1` (centres unmarked) [Compound 286, 8-(3-(1,1-difluoroethyl)phenyl)-8-hydroxy-5,7-di-p-tolyl-2-oxa-5,7-diazaspiro[3.4]octan-6-one], the IC50 is less than 1 µM.

On to `Cc1ccc(N2C(=O)N(c3ccc(C#N)cc3)C(O)(c3cccc(OC(F)(F)F)c3)C2(C)C)cc1` (centres unmarked) [Example 314, 4-(5-hydroxy-4,4-dimethyl-2-oxo-3-(p-tolyl)-5-(3-(trifluoromethoxy)phenyl)imidazolidin-1-yl)benzonitrile], for which the IC50 was less than 1 µM.

As to `Cc1ccc(N2C(=O)N(c3ccc(C#N)cc3)C3(CCC3)C2(O)c2cccc(OC(F)(F)F)c2)cc1` (centres unmarked) [Compound 279, 4-(8-hydroxy-6-oxo-7-(p-tolyl)-8-(3-(trifluoromethoxy)phenyl)-5,7-diazaspiro[3.4]octan-5-yl)benzonitrile], the half-maximal inhibitory concentration (IC50) is less than 1 µM.

Staying with this experiment, now noted: Table 1, Compounds of Formula (I) and Formula (II); CGT enzymatic assay; read-out: IC50.
Turning to `Cc1cccc([C@@]2(C)C(O)N(c3ccc(Cl)cc3)C(=O)N2c2ccc(Cl)cc2)c1` (single isomer, unassigned) [Example 222-1], the concentration for half-maximal inhibition (IC50) lay in the range of 10 to 50 µM.

As for `OC1(c2ccccc2)CN(c2ccc(Br)cc2)C(=S)N1c1ccc(Br)cc1` (centres unmarked) [Example 26, 1,3-bis(4-bromophenyl)-4-hydroxy-4-phenylimidazolidine-2-thione], the IC50 was in the range of 50 to 100 µM.

For `CCC1(O)[C@H](c2ccccc2)N(c2ccc(Br)cc2)C(=O)N1c1ccc(Br)cc1` (some centres unmarked) [Example 45-1], the IC50 was less than 1 µM.

On to `CCc1cccc(C2(O)C(C)N(c3ccc(Br)cc3)C(=O)N2c2ccc(Br)cc2)c1` (centres unmarked) [Compound 68, 1,3-bis(4-bromophenyl)-4-(3-ethylphenyl)-4-hydroxy-5-methylimidazolidin-2-one], for which the half-maximal inhibitory concentration (IC50) is less than 1 µM.

Consider `N#Cc1cccc(C2(O)N(c3ccc(Cl)cc3)C(=O)N(c3ccc(Cl)cc3)C23COC3)c1` (centres unmarked) [Compound 151, 3-(5,7-bis(4-chlorophenyl)-8-hydroxy-6-oxo-2-oxa-5,7-diazaspiro[3.4]octan-8-yl)benzonitrile], for which the IC50 is less than 1 µM.

For the molecule `O=C1N(c2ccc(Br)cc2)C(=O)C(O)(c2cc3ccccc3o2)N1c1ccc(Br)cc1` (centres unmarked) [Example 213, 5-(benzofuran-2-yl)-1,3-bis(4-bromophenyl)-5-hydroxyimidazolidine-2,4-dione], the IC50 was greater than 50 µM.

Consider `O=C1N(c2ccc(Cl)cc2)CC(O)(c2cccc(Br)c2)N1c1ccc(Cl)cc1` (centres unmarked) [Example 55, 4-(3-bromophenyl)-1,3-bis(4-chlorophenyl)-4-hydroxyimidazolidin-2-one], for which the half-maximal inhibitory concentration (IC50) fell in the range of 1 to 10 µM.

In the case of `Cc1cccc(C2(O)CN(c3ccc(Br)cc3)C(=O)N2c2ccc(Br)cc2)c1` (centres unmarked) [Example 16, 1,3-bis(4-bromophenyl)-4-hydroxy-4-(m-tolyl)imidazolidin-2-one], the concentration for half-maximal inhibition (IC50) lay within 1 to 10 µM.

Turning to `COc1ccc(N2C(=O)N(c3ccc(OC)cc3)C(O)(c3ccccc3)C2=O)cc1` (centres unmarked) [Example 160, 5-hydroxy-1,3-bis(4-methoxyphenyl)-5-phenylimidazolidine-2,4-dione], the half-maximal inhibitory concentration (IC50) is greater than 50 µM.

For the molecule `Cc1ccc(C2(O)C(=O)N(c3ccc(Br)cc3)C(=O)N2c2ccc(Br)cc2)cc1` (centres unmarked) [Example 200, 1,3-bis(4-bromophenyl)-5-hydroxy-5-(p-tolyl)imidazolidine-2,4-dione], the IC50 lay in the range of 50 to 100 µM.

For the molecule `Cc1csc(C2(O)[C@@H](C)N(c3ccc(Br)cc3)C(=O)N2c2ccc(Br)cc2)c1` (stereo partly drawn) [Compound 97-2, (5R)-1,3-bis(4-bromophenyl)-4-hydroxy-5-methyl-4-(4-methylthiophen-2-yl)imidazolidin-2-one], the half-inhibitory concentration (IC50) was 1 to 10 µM.

Turning to `CC1(c2ccccc2)N(c2ccc(Cl)cc2)C(=O)N(c2ccc(Cl)cc2)C1(O)c1ccccc1` (centres unmarked) [Compound 121, 1,3-bis(4-chlorophenyl)-4-hydroxy-5-methyl-4,5-diphenylimidazolidin-2-one], the IC50 lay within 1 to 10 µM.

As for `O=c1n(-c2ccc(Cl)cc2)c(-c2cccc(OC(F)(F)F)c2)c(C2CC2)n1-c1ccc(Cl)cc1` [Compound 65, 1,3-bis(4-chlorophenyl)-4-cyclopropyl-5-(3-(trifluoromethoxy)phenyl)-1,3-dihydro-2H-imidazol-2-one], the 50% inhibitory concentration (IC50) is less than 1 µM.

As to `COc1ccc(C2(O)C(=O)N(c3ccc(Br)cc3)C(=O)N2c2ccc(Br)cc2)cc1` (centres unmarked) [Compound 144, 1,3-bis(4-bromophenyl)-5-hydroxy-5-(4-methoxyphenyl)imidazolidine-2,4-dione], the IC50 was 50 to 100 µM.

In the case of `O=C1N(c2ccc(Br)cc2)CC(O)(c2ccccc2)N1c1ccc(Br)cc1` (centres unmarked) [Example 1], the IC50 was in the range of 1 to 10 µM.

Consider `C[C@@]1(C(F)(F)F)N(c2ccc(Cl)cc2)C(=O)N(c2ccc(Cl)cc2)C1(O)c1cccc(C#N)c1` (single isomer, unassigned) [Example 177-2], for which the IC50 lay within 1 to 10 µM.

With `Cc1csc(-c2c(C)n(-c3ccc(Br)cc3)c(=O)n2-c2ccc(Br)cc2)c1` [Compound 266, 1,3-bis(4-bromophenyl)-4-methyl-5-(4-methylthiophen-2-yl)-1,3-dihydro-2H-imidazol-2-one], the half-inhibitory concentration (IC50) is 1 to 10 µM.

Take `Cc1cc(C)cc(C2(O)[C@@H](C)N(c3ccc(Br)cc3)C(=O)N2c2ccc(Br)cc2)c1` (some centres unmarked) [Example 42-2]: the IC50 lay in the range of 1 to 10 µM.

`Cc1ccc(N2CC(O)(c3ccccc3)N(c3ccc(C)cc3)C2=O)cc1` (centres unmarked) [Example 17, 4-hydroxy-4-phenyl-1,3-di-p-tolylimidazolidin-2-one]: the concentration for half-maximal inhibition (IC50) fell in the range of 1 to 10 µM.

As for `Cc1c(-c2ccccc2)n(-c2ccc(Br)cc2)c(=O)n1-c1ccc(Br)cc1` [Compound 257, 1,3-bis(4-bromophenyl)-4-methyl-5-phenyl-1,3-dihydro-2H-imidazol-2-one], the IC50 was less than 1 µM.

As to `CCCc1c(-c2ccccc2)n(-c2ccc(Br)cc2)c(=O)n1-c1ccc(Br)cc1` [Compound 261, 1,3-bis(4-bromophenyl)-4-phenyl-5-propyl-1,3-dihydro-2H-imidazol-2-one], the 50% inhibitory concentration (IC50) was in the range of 1 to 10 µM.

As for `C[C@H]1N(c2ccc(Cl)cc2)C(=O)N(c2ccc(Cl)cc2)C1(O)c1cccc(Br)c1` (stereo partly drawn) [Compound 94-2, (5R)-4-(3-bromophenyl)-1,3-bis(4-chlorophenyl)-4-hydroxy-5-methylimidazolidin-2-one], the IC50 was less than 1 µM.

For the molecule `CCC1(C)N(c2ccc(Cl)cc2)C(=O)N(c2ccc(Cl)cc2)C1(O)c1cccc(OC(F)(F)F)c1` (centres unmarked) [Example 163, 1,3-bis(4-chlorophenyl)-4-ethyl-5-hydroxy-4-methyl-5-(3-(trifluoromethoxy)phenyl)imidazolidin-2-one], the concentration for half-maximal inhibition (IC50) is less than 1 µM.

In the case of `C[C@@]1(C(F)(F)F)N(c2ccc(Cl)cc2)C(=O)N(c2ccc(Cl)cc2)C1(O)c1cccc(OC(F)(F)F)c1` (single isomer, unassigned) [Example 159-2], the IC50 is less than 1 µM.

As to `CCCc1c(C(=O)c2ccccc2)n(-c2ccc(Cl)cc2)c(=O)n1-c1ccc(Cl)cc1` [Example 27, 4-benzoyl-1,3-bis(4-chlorophenyl)-5-propyl-1,3-dihydro-2H-imidazol-2-one], the IC50 lay within 10 to 50 µM.

On to `COc1ccccc1C1(O)C(=O)N(c2ccc(Br)cc2)C(=O)N1c1ccc(Br)cc1` (centres unmarked) [Example 206, 1,3-bis(4-bromophenyl)-5-hydroxy-5-(2-methoxyphenyl)imidazolidine-2,4-dione], for which the IC50 was greater than 50 µM.
